Source: ChEMBL document CHEMBL1140572, “Next-generation spirobenzazepines: identification of RWJ-676070 as a balanced vasopressin V1a/V2 receptor antagonist for human clinical studies” (Bioorg Med Chem Lett, 2007)

What was measured:
[1] = biological target: T1, Vasopressin V1a receptor (Homo sapiens, UniProt P37288); experiment: Displacement of [3H]Arg-vasopressin from human recombinant vasopressin V1a receptor expressed in HEK293 cells; type: cell-based
Target sequence in this assay (P37288 whole entry): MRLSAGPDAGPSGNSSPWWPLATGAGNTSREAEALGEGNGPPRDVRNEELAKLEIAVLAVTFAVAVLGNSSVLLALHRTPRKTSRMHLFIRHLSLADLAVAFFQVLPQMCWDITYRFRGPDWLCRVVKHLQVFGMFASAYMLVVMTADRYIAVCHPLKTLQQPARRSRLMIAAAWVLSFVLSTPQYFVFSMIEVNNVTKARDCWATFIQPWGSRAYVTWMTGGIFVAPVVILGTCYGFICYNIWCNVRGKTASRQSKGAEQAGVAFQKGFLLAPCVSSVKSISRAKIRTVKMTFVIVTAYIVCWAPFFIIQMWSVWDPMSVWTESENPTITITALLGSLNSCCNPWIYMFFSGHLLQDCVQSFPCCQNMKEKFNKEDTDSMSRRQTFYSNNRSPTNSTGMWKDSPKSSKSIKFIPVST

[2] = biological target: T2, Vasopressin V2 receptor (Homo sapiens, UniProt P30518); experiment: Displacement of [3H]Arg-vasopressin from human recombinant vasopressin V2 receptor expressed in HEK293 cells; type: cell-based
[3] = biological target: T1, Vasopressin V1a receptor; experiment: Antagonist activity at human vasopressin V1a receptor expressed in HEK293 cells assessed as inhibition of Arg-vasopressin-induced intracellular calcium level; type: functional, cell-based
Target sequence in this assay (P37288 whole entry): as above

[4] = biological target: T2, Vasopressin V2 receptor; experiment: Antagonist activity at human vasopressin V2 receptor expressed in HEK293 cells assessed as inhibition of Arg-vasopressin-induced cAMP levels; type: functional, cell-based
[5] = biological target: T2, Vasopressin V2 receptor; experiment: Displacement of [3H]Arg-vasopressin from human recombinant vasopressin V2 receptor expressed in HEK293 cells at 100 nM; type: cell-based
[6] = test system: Rattus norvegicus; experiment: Aquaretic effect in hydrated conscious rat assessed as reduction of urine osmolality at 30 mg/kg, po relative to control; type: functional; parameters: scale not given: the % may be the effect or the level left
[7] = test system: Canis familiaris; experiment: Aquaretic effect in Beagle dog assessed as increase in urine volume at 30 mg/kg, po relative to control; type: functional, Canis lupus familiaris
[8] = test system: Canis familiaris; experiment: Aquaretic effect in Beagle dog assessed as reduction of urine osmolality at 30 mg/kg, po relative to control; type: functional, Canis lupus familiaris; parameters: scale not given: the % may be the effect or the level left
[9] = test system: Rattus norvegicus; experiment: Reversal of Arg-vasopressin-induced hypertension in iv dosed Long-Evans rat assessed as reduction of blood pressure; type: functional
[10] = Aqueous solubility at pH 7.4; type: physicochemical
[11] = biological target: Vasopressin V1a receptor (Rattus norvegicus, UniProt P30560); experiment: Antagonist activity at rat vasopressin V1a receptor expressed in HEK293 cells assessed as inhibition of Arg-vasopressin-induced intracellular calcium level; type: functional, cell-based
[12] = biological target: Vasopressin V2 receptor (Rattus norvegicus, UniProt Q00788); experiment: Antagonist activity at rat vasopressin V2 receptor expressed in HEK293 cells assessed as inhibition of Arg-vasopressin-induced cAMP levels; type: functional, cell-based
[13] = Oral bioavailability in rat; type: ADME, organism-based; conditions: in vivo
[14] = Oral bioavailability in dog; type: ADME, organism-based, Canis lupus familiaris; conditions: in vivo
[15] = Oral bioavailability in cynomolgus monkey; type: ADME, organism-based, Macaca fascicularis; conditions: in vivo
[16] = Half life in rat plasma; type: ADME, organism-based
[17] = Half life in dog plasma; type: ADME, organism-based, Canis lupus familiaris
[18] = Half life in cynomolgus monkey plasma; type: ADME, organism-based, Macaca fascicularis
[19] = test system: Rattus norvegicus; experiment: Aquaretic effect in hydrated conscious rat assessed as increase in urine volume at 1 mg/kg, po relative to control; type: functional
[20] = test system: Rattus norvegicus; experiment: Aquaretic effect in hydrated conscious rat assessed as reduction of urine osmolality at 1 mg/kg, po relative to control; type: functional; parameters: scale not given: the % may be the effect or the level left
[21] = test system: Rattus norvegicus; experiment: Aquaretic effect in hydrated conscious rat assessed as increase in urine volume at 3 mg/kg, po relative to control; type: functional
[22] = test system: Rattus norvegicus; experiment: Aquaretic effect in hydrated conscious rat assessed as reduction of urine osmolality at 3 mg/kg, po relative to control; type: functional; parameters: scale not given: the % may be the effect or the level left
[23] = test system: Rattus norvegicus; experiment: Aquaretic effect in hydrated conscious rat assessed as increase in urine volume at 10 mg/kg, po relative to control; type: functional
[24] = test system: Rattus norvegicus; experiment: Aquaretic effect in hydrated conscious rat assessed as reduction of urine osmolality at 10 mg/kg, po relative to control; type: functional; parameters: scale not given: the % may be the effect or the level left
[25] = test system: Rattus norvegicus; experiment: Aquaretic effect in hydrated conscious rat assessed as increase in urine volume at 30 mg/kg, po relative to control; type: functional
[26] = biological target: T1, Vasopressin V1a receptor; experiment: Displacement of [3H]Arg-vasopressin from human recombinant vasopressin V1a receptor expressed in HEK293 cells at 100 nM; type: cell-based
Target sequence in this assay (P37288 whole entry, looked up): as the sequence (P37288 whole entry) above

T2 sequence (P30518 whole entry): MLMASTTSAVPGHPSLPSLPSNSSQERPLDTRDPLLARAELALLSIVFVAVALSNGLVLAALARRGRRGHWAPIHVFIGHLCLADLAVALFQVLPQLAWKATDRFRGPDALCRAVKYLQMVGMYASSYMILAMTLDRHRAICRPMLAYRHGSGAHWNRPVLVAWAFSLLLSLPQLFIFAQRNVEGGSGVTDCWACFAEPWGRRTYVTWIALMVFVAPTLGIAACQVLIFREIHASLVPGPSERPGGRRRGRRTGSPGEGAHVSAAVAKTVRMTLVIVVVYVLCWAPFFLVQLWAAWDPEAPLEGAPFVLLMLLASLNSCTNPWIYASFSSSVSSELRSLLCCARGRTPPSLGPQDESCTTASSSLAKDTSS
Sequence of Vasopressin V2 receptor (Rattus norvegicus, UniProt Q00788) (Q00788 whole entry): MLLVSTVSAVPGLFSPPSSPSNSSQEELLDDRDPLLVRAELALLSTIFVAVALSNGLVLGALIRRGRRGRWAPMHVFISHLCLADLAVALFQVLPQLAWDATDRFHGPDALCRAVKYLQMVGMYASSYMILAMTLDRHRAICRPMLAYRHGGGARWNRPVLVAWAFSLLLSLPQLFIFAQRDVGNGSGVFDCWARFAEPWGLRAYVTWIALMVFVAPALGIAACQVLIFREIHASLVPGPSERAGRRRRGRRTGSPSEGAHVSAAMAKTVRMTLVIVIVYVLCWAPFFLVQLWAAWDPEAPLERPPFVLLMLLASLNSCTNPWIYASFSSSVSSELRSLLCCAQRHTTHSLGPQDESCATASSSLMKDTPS
Sequence of Vasopressin V1a receptor (Rattus norvegicus, UniProt P30560) (P30560 whole entry): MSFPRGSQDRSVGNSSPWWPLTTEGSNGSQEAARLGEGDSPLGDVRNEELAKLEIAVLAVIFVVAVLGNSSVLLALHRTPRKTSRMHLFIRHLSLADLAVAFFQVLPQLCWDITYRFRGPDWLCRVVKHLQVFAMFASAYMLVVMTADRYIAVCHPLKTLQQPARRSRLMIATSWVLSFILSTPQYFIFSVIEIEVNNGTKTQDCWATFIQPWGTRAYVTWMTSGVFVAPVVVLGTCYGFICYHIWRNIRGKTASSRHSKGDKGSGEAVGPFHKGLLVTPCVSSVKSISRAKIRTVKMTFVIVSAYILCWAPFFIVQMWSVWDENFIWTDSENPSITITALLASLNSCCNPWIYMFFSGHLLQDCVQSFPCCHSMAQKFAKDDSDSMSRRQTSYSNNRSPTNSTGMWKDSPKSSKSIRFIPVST

| SMILES | IC50 [1] [nM] | IC50 [2] [nM] | IC50 [3] [nM] | IC50 [4] [nM] | Activity [5] [%] | other results |
| --- | --- | --- | --- | --- | --- | --- |
| COc1cc(C(=O)N2CCC3(C=C(C(=O)O)CC3)Cc3ccccc32)ccc1NC(=O)c1cc(F)ccc1Cl (stereo not given) | 19 | 92 | 89 | 120 |  |  |
| O=C(O)C1=CC2(CC1)CCN(C(=O)c1ccc(NC(=O)c3ccccc3F)cc1)c1ccccc1C2 (stereo not given) | 100 |  |  |  | 15 |  |
| COC(=O)C1=CC2(CC1)CCN(C(=O)c1ccc(NC(=O)c3ccccc3F)cc1)c1ccccc1C2 (stereo not given) |  |  | 130 | > 10000 | 23 |  |
| COc1cc(C(=O)N2CC[C@]3(C=C(C(=O)O)CC3)Cc3ccccc32)ccc1NC(=O)c1cc(F)ccc1Cl |  | 34 |  |  |  | Activity [6]: 83%; Activity [7]: 1130%; Activity [8]: -78%; ED50 [9]: 0.644 mg/kg; solubility [10]: > 1000 µg/mL; IC50 [11]: 640 nM; IC50 [12]: 30 nM; bioavailability [13]: 68%; bioavailability [14]: 45%; bioavailability [15]: 23%; half-life [16]: 8.7 h; half-life [17]: 5.1 h; half-life [18]: 10.9 h; Activity [19]: 130%; Activity [20]: 87%; Activity [21]: 165%; Activity [22]: 48%; Activity [23]: 310%; Activity [24]: 52%; Activity [25]: 690% |
| Cc1ccc(F)cc1C(=O)Nc1ccc(C(=O)N2CCC3(C=C(C(=O)O)CC3)Cc3ccccc32)c(Cl)c1 (stereo not given) |  |  |  |  | 67 | Activity [26]: 10% |
| CNCC1=CC2(CC1)CCN(C(=O)c1ccc(NC(=O)c3cc(F)ccc3C)cc1Cl)c1ccccc1C2 (stereo not given) |  |  |  |  | 17 | Activity [26]: 0% |
| O=C(O)C1=CC2(CC1)CCN(C(=O)c1ccc(NC(=O)c3ccccc3-c3ccccc3)cc1)c1ccccc1C2 (stereo not given) |  |  |  | 360 |  |  |
| O=C(O)C1=CC2(CC1)CCN(C(=O)c1ccc(NC(=O)c3cc(F)ccc3Cl)cc1)c1ccccc1C2 (stereo not given) | 32 | 76 | 780 | 410 |  |  |
| COc1cc(C(=O)N2CC[C@]3(C=C(C4=NCCN4)CC3)Cc3ccccc32)ccc1NC(=O)c1cc(F)ccc1Cl |  |  |  | 1050 |  |  |
| Cc1ccc(F)cc1C(=O)Nc1ccc(C(=O)N2Cc3cccn3Cc3ccccc32)c(Cl)c1 [LIXIVAPTAN] |  |  | > 5000 |  |  |  |
| O=C(Nc1ccc(C(=O)N2CCC3(C=C(CO)CC3)Cc3ccccc32)cc1)c1ccccc1-c1ccccc1 (stereo not given) |  |  | 9 | 190 |  |  |
| CN(C)CCNC(=O)C1=C[C@@]2(CC1)CCN(C(=O)c1ccc(NC(=O)c3ccccc3-c3ccccc3)cc1)c1ccccc1C2 | 2 | 8 | 45 | 36 |  |  |
| COc1cc(NC(=O)c2cc(F)ccc2C)ccc1C(=O)N1CCC2(C=C(C(=O)O)CC2)Cc2ccccc21 (stereo not given) |  |  | 11600 | 140 |  | Activity [26]: 15% |
| COC(=O)C1=CC2(CC1)CCN(C(=O)c1ccc(NC(=O)c3cc(F)ccc3Cl)cc1)c1ccccc1C2 (stereo not given) | 40 | > 200 | 190 | > 10000 |  |  |
| Cc1ccc(F)cc1C(=O)Nc1ccc(C(=O)N2CCC3(C=C(CO)CC3)Cc3ccccc32)c(Cl)c1 (stereo not given) | 100 |  |  |  | 66 |  |
| CNCC1=CC2(CC1)CCN(C(=O)c1ccc(NC(=O)c3ccccc3-c3ccccc3)cc1)c1ccccc1C2 (stereo not given) | 18 | 44 | 630 | 1800 |  |  |
